In patent US20230123334A1, “AMINO LIPID COMPOUND, PREPARATION METHOD THEREFOR, AND APPLICATION THEREOF” (SHENZHEN SHENXIN BIOTECHNOLOGY CO., LTD., priority 2020, published 2023):

system: HEK293 cells; experiment: Preliminary screening as DNA vectors, GFP transfection of HEK293 cells; type: cell-based; details: amino lipid/DOPE liposome with 75 ng plasmid DNA (psin-EGFP-IRES-Puro); number of GFP-expressing cells divided by total nuclei (Hoechst)
In short: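 HEK293 cells in DMEM/10% FBS transfected with 75 ng EGFP plasmid per well complexed with amino lipid/DOPE liposomes in pH 5.6 sodium acetate. Hoechst nuclear stain added 20-24 h post-transfection, then cells cultured another 20-24 h. Confocal imaging gives GFP-positive cells as % of total nuclei.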

SMILES | Absolute DNA transfection efficiency in HEK293 cells
CCCCCCCCCCCCNc1nc(NCCN2CCN(C)CC2)nc(SCCCCCCCCCC)n1 [S10N12 D5] | 2.6%
CCCCCCCCCCCCNc1nc(NCCCN(C)C)nc(SCCCCCCCCCC)n1 [S10N12 D6] | 19.8%
CCCCCCCCCCCCNc1nc(NCCN(CC)CC)nc(SCCCCCCCCCC)n1 [S10N12 D7] | 5.9%
CCCCCCCCCCCCNc1nc(NCCCN2CCOCC2)nc(SCCCCCCCCCC)n1 [S10N12 D8] | 5.3%
CCCCCCCCCCCCNc1nc(NCCCN2CCN(C)CC2)nc(SCCCCCCCCCC)n1 [S10N12 D9] | 3.6%
CCCCCCCCCCCCNc1nc(NCC2CCN(C)CC2)nc(SCCCCCCCCCC)n1 [S10N12 D10] | 6.8%
CCCCCCCCCCCCCNc1nc(NCCN(C)C)nc(SCCCCCCCCCC)n1 [S10N13 D1] | 6.1%
CCCCCCCCCCCCCNc1nc(NCCN2CCOCC2)nc(SCCCCCCCCCC)n1 [S10N13 D2] | 4.2%
CCCCCCCCCCCCCNc1nc(NCCN2CCCC2)nc(SCCCCCCCCCC)n1 [S10N13 D3] | 7.7%
CCCCCCCCCCCCCNc1nc(NCCN2CCCCC2)nc(SCCCCCCCCCC)n1 [S10N13 D4] | 4.2%
CCCCCCCCCCCCCNc1nc(NCCN2CCN(C)CC2)nc(SCCCCCCCCCC)n1 [S10N13 D5] | 2.1%
CCCCCCCCCCCCCNc1nc(NCCCN(C)C)nc(SCCCCCCCCCC)n1 [S10N13 D6] | 7.9%
CCCCCCCCCCCCCNc1nc(NCCN(CC)CC)nc(SCCCCCCCCCC)n1 [S10N13 D7] | 4.4%
CCCCCCCCCCCCCNc1nc(NCCCN2CCOCC2)nc(SCCCCCCCCCC)n1 [S10N13 D8] | 5.7%
CCCCCCCCCCCCCNc1nc(NCCCN2CCN(C)CC2)nc(SCCCCCCCCCC)n1 [S10N13 D9] | 0.4%
CCCCCCCCCCCCCNc1nc(NCC2CCN(C)CC2)nc(SCCCCCCCCCC)n1 [S10N13 D10] | 3.2%
CCCCCCCCCCCCCCCNc1nc(NCCN(C)C)nc(SCCCCCCCCCC)n1 [S10N15 D1] | 4.8%
CCCCCCCCCCCCCCCNc1nc(NCCN2CCOCC2)nc(SCCCCCCCCCC)n1 [S10N15 D2] | 1.4%
CCCCCCCCCCCCCCCNc1nc(NCCN2CCCC2)nc(SCCCCCCCCCC)n1 [S10N15 D3] | 11.5%
CCCCCCCCCCCCCCCNc1nc(NCCN2CCCCC2)nc(SCCCCCCCCCC)n1 [S10N15 D4] | 4.1%
CCCCCCCCCCCCCCCNc1nc(NCCN2CCN(C)CC2)nc(SCCCCCCCCCC)n1 [S10N15 D5] | 3.2%
CCCCCCCCCCCCCCCNc1nc(NCCCN(C)C)nc(SCCCCCCCCCC)n1 [S10N15 D6] | 9.1%
CCCCCCCCCCCCCCCNc1nc(NCCN(CC)CC)nc(SCCCCCCCCCC)n1 [S10N15 D7] | 1.7%
CCCCCCCCCCCCCCCNc1nc(NCCCN2CCOCC2)nc(SCCCCCCCCCC)n1 [S10N15 D8] | 5.1%

SMILES | Absolute DNA transfection efficiency in HEK293 cells
CCCCCCCCCCCCCCCNc1nc(NCCCN2CCN(C)CC2)nc(SCCCCCCCCCC)n1 [S10N15 D9] | 4.1%
CCCCCCCCCCCCCCCNc1nc(NCC2CCN(C)CC2)nc(SCCCCCCCCCC)n1 [S10N15 D10] | 6.9%
CCCCCCCCCCCCCCCCNc1nc(NCCN(C)C)nc(SCCCCCCCCCC)n1 [S10N16 D1] | 7.8%
CCCCCCCCCCCCCCCCNc1nc(NCCN2CCOCC2)nc(SCCCCCCCCCC)n1 [S10N16 D2] | 1.2%
CCCCCCCCCCCCCCCCNc1nc(NCCN2CCCC2)nc(SCCCCCCCCCC)n1 [S10N16 D3] | 8.8%
CCCCCCCCCCCCCCCCNc1nc(NCCN2CCCCC2)nc(SCCCCCCCCCC)n1 [S10N16 D4] | 4.4%
CCCCCCCCCCCCCCCCNc1nc(NCCN2CCN(C)CC2)nc(SCCCCCCCCCC)n1 [S10N16 D5] | 3.1%
CCCCCCCCCCCCCCCCNc1nc(NCCCN(C)C)nc(SCCCCCCCCCC)n1 [S10N16 D6] | 13.6%
CCCCCCCCCCCCCCCCNc1nc(NCCN(CC)CC)nc(SCCCCCCCCCC)n1 [S10N16 D7] | 4.8%
CCCCCCCCCCCCCCCCNc1nc(NCCCN2CCOCC2)nc(SCCCCCCCCCC)n1 [S10N16 D8] | 3.0%
CCCCCCCCCCCCCCCCNc1nc(NCCCN2CCN(C)CC2)nc(SCCCCCCCCCC)n1 [S10N16 D9] | 5.0%
CCCCCCCCCCCCCCCCNc1nc(NCC2CCN(C)CC2)nc(SCCCCCCCCCC)n1 [S10N16 D10] | 8.7%
CCCCCCCCCCCCCCCCCCNc1nc(NCCN(C)C)nc(SCCCCCCCCCC)n1 [S10N18 D1] | 9.0%
CCCCCCCCCCCCCCCCCCNc1nc(NCCN2CCOCC2)nc(SCCCCCCCCCC)n1 [S10N18 D2] | 2.1%
CCCCCCCCCCCCCCCCCCNc1nc(NCCN2CCCC2)nc(SCCCCCCCCCC)n1 [S10N18 D3] | 11.9%
CCCCCCCCCCCCCCCCCCNc1nc(NCCN2CCCCC2)nc(SCCCCCCCCCC)n1 [S10N18 D4] | 4.9%
CCCCCCCCCCCCCCCCCCNc1nc(NCCN2CCN(C)CC2)nc(SCCCCCCCCCC)n1 [S10N18 D5] | 1.8%
CCCCCCCCCCCCCCCCCCNc1nc(NCCCN(C)C)nc(SCCCCCCCCCC)n1 [S10N18 D6] | 7.8%
CCCCCCCCCCCCCCCCCCNc1nc(NCCN(CC)CC)nc(SCCCCCCCCCC)n1 [S10N18 D7] | 4.0%
CCCCCCCCCCCCCCCCCCNc1nc(NCCCN2CCOCC2)nc(SCCCCCCCCCC)n1 [S10N18 D8] | 0.3%
CCCCCCCCCCCCCCCCCCNc1nc(NCCCN2CCN(C)CC2)nc(SCCCCCCCCCC)n1 [S10N18 D9] | 3.3%
CCCCCCCCCCCCCCCCCCNc1nc(NCC2CCN(C)CC2)nc(SCCCCCCCCCC)n1 [S10N18 D10] | 3.8%
CCCCCCCCCCCCN(CCCCCCCCCCCC)c1nc(NCCN(C)C)nc(SCCCCCCCCCC)n1 [S10^2N12 D1] | 3.2%
CCCCCCCCCCCCN(CCCCCCCCCCCC)c1nc(NCCN2CCOCC2)nc(SCCCCCCCCCC)n1 [S10^2N12 D2] | 0.0%

SMILES | Absolute DNA transfection efficiency in HEK293 cells
CCCCCCCCCCCCN(CCCCCCCCCCCC)c1nc(NCCN2CCCC2)nc(SCCCCCCCCCC)n1 [S10^2N12 D3] | 1.1%
CCCCCCCCCCCCN(CCCCCCCCCCCC)c1nc(NCCN2CCCCC2)nc(SCCCCCCCCCC)n1 [S10^2N12 D4] | 0.1%
CCCCCCCCCCCCN(CCCCCCCCCCCC)c1nc(NCCN2CCN(C)CC2)nc(SCCCCCCCCCC)n1 [S10^2N12 D5] | 0.9%
CCCCCCCCCCCCN(CCCCCCCCCCCC)c1nc(NCCCN(C)C)nc(SCCCCCCCCCC)n1 [S10^2N12 D6] | 4.3%
CCCCCCCCCCCCN(CCCCCCCCCCCC)c1nc(NCCN(CC)CC)nc(SCCCCCCCCCC)n1 [S10^2N12 D7] | 0.7%
CCCCCCCCCCCCN(CCCCCCCCCCCC)c1nc(NCCCN2CCOCC2)nc(SCCCCCCCCCC)n1 [S10^2N12 D8] | 0.0%
CCCCCCCCCCCCN(CCCCCCCCCCCC)c1nc(NCCCN2CCN(C)CC2)nc(SCCCCCCCCCC)n1 [S10^2N12 D9] | 0.5%
CCCCCCCCCCCCN(CCCCCCCCCCCC)c1nc(NCC2CCN(C)CC2)nc(SCCCCCCCCCC)n1 [S10^2N12 D10] | 3.3%
CCCCCCCCCCCSc1nc(NCCCCCC)nc(NCCN(C)C)n1 [S11N6 D1] | 33.1%
CCCCCCCCCCCSc1nc(NCCCCCC)nc(NCCN2CCOCC2)n1 [S11N6 D2] | 19.0%
CCCCCCCCCCCSc1nc(NCCCCCC)nc(NCCN2CCCC2)n1 [S11N6 D3] | 8.3%
CCCCCCCCCCCSc1nc(NCCCCCC)nc(NCCN2CCCCC2)n1 [S11N6 D4] | 29.0%
CCCCCCCCCCCSc1nc(NCCCCCC)nc(NCCN2CCN(C)CC2)n1 [S11N6 D5] | 21.6%
CCCCCCCCCCCSc1nc(NCCCCCC)nc(NCCCN(C)C)n1 [S11N6 D6] | 29.3%
CCCCCCCCCCCSc1nc(NCCCCCC)nc(NCCN(CC)CC)n1 [S11N6 D7] | 25.0%
CCCCCCCCCCCSc1nc(NCCCCCC)nc(NCCCN2CCOCC2)n1 [S11N6 D8] | 13.3%
CCCCCCCCCCCSc1nc(NCCCCCC)nc(NCCCN2CCN(C)CC2)n1 [S11N6 D9] | 13.5%
CCCCCCCCCCCSc1nc(NCCCCCC)nc(NCC2CCN(C)CC2)n1 [S11N6 D10] | 8.8%
CCCCCCCCCCCSc1nc(NCCCCCCC)nc(NCCN(C)C)n1 [S11N7 D1] | 27.6%
CCCCCCCCCCCSc1nc(NCCCCCCC)nc(NCCN2CCOCC2)n1 [S11N7 D2] | 11.7%
CCCCCCCCCCCSc1nc(NCCCCCCC)nc(NCCN2CCCC2)n1 [S11N7 D3] | 19.4%
CCCCCCCCCCCSc1nc(NCCCCCCC)nc(NCCN2CCCCC2)n1 [S11N7 D4] | 4.6%
